From patent publication US20250295686A1, “COMBINATION DECITABINE AND MPS1 INHIBITOR THERAPY TO PRIME CANCER IMMUNOGENICITY” (Dana-Farber Cancer Institute, Inc., priority 2021, published 2025)
Entries after “also recorded” stand apart in the source; their conditions may differ.

How the values were obtained:
Format in all cases: cell-based, human
STING pathway = assay: Screening of DNA-damaging agents: CXCL10 / IFN-β ELISA in conditioned medium of H1944 cells after pulse treatment
Excerpt: (§1) Due to their particular hypersensitivity, H1944 cells were utilized as a model system in which to conduct an unbiased screen of cytotoxic chemotherapies or targeted DNA-damaging agents for their ability to upregulate endogenous 2′3′-cGAMP production following pulse treatment, including cGAS-deficient H2122 cells as a counter-screen (FIGS. 3A and 3B). […] Additionally, hydroxyurea or nocodazole were included as controls to induce S-phase or M-phase cell cycle arrest. The IC50 was identified for each compound for cell viability in H1944 cells, and this concentration was utilized for the screen (FIG. 4A and Table 1). It was shown that each agent induced cellular cytotoxicity and/or DNA-damage response at this concentration, as measured by the induction of propidium iodide positive cells, cleaved PARP fragments, or histone TH2A.X expression (FIGS. 4B and 4C).
(§2) Human IFN-β (Thermo Fisher Scientific, Cat. #414101), human CXCL10 (R&D systems, Cat. #DIP100), mouse CXCL10 (R&D systems, Cat. #DY466), and 2′3′-cGAMP (Cayman Chemical, Cat. #501700) ELISAs were performed according to the manufacturer's instructions. Conditioned media from each cell lines was collected after 24 hour culture. Values represent the average of four replicates from at least two independent experiments (biological replicates).

H1944 cells [1] = assay: Quantification of micronucleus formation; conditions: 48-hour pulse treatment schedule, 200 nM CFI-402257, 5 nM docetaxel, 200 nM barasertib
Excerpt: MPS1 is a regulator of the spindle assembly checkpoint (SAC), and MPS1 inhibition in other contexts is known to facilitate massive chromosome missegregation (London and Biggins, 2014). This effect could therefore be related to the formation of micronuclei, known activators of cGAS-STING signaling generated by mitotic slippage and subsequent progression into G1 (Mackenzie et al., 2017). […] Furthermore, induction of CXCL10 mRNA expression in H1944 cells directly correlated with the number of micronuclei induced by these DNA-damaging agents, with CFI-402257 representing the clear outlier (FIG. 5C). Additionally, Lamin B2 over-expression, which is sufficient to inhibit micronuclei disruption (Hatch et al., 2013) and could protect against cGAS recognition, attenuated CXCL10 secretion induced by pulse treatment with MPS1 inhibitor (FIGS. 6A and 6B).
Cells were plated onto chamber slides (CellTreat, Cat #229168), and treated with DNA-damaging agents for 48 hours. […] Z-stack images were subjected to maximum projection followed by quantitative analysis using CellSens. All samples were imaged and analyzed with the same setting throughout the experiments. The number of micronuclei were counted from three different fields for each sample. […] Slides were imaged with Zeiss LSM 880 confocal microscopy, and colocalization was determined using ImageJ.

H1944 cells [2] = assay: Cell viability assay to determine an IC50 (CellTiter-Glo); conditions: Homo sapiens, NCI-H1944, 72 hours with drug
Excerpt: as §1
3000 cells were plated onto 96-well plates, and then cultured for 72 hours in the presence of each DNA-damaging agent at the indicated concentration. Values of CellTiter-Glo Luminescent Cell Viability assay (Promega) […] were normalized to vehicle treated cells. Plates were read on a Tecan Infinite M200 Pro plate reader and analysis was performed using Prism7 (GraphPad Software). All conditions were tested in triplicate.

KL NSCLC cell lines = assay: CXCL10 ELISA after exogenous CDN exposure, KL NSCLC cell lines; conditions: 24 hours
Excerpt: Treatment with 2′3′-cGAMP or ADU-S100 was utilized to examine the sensitivity of KP or KL NSCLC cell lines to exogenous CDN exposure. […] KL cell response to extracellular CDNs was still modest as compared with endothelial cells (HUVEC) or monocytic THP-1 cells, which also have different membrane permeabilities (FIG. 2C) (Cordova et al., 2021; Luteijn et al., 2019; Ritchie et al., 2019).
as §2

THP1 cells = assay: STING pathway activation (CXCL10 ELISA, immunoblot) in PMA-differentiated macrophage-like THP1 cells; conditions: 200 nM CFI-402257 screening schedule or 10 μM ADU-S100 24 hours
Protocol: Based on these observations, MPS1 inhibition might also induce micronuclei more efficiently in proliferating cancer cells as compared with non-genomically altered, non-proliferative cells in the TME such as immune cells and endothelial cells.
as §2
Cells were lysed in RIPA buffer containing 1× protease inhibitors (Roche, Cat #11-836-145-001) and phosphatase inhibitors (50 mmol/L NaF and 100 mmol/L Na3VO4). […] Imaging of blots and quantitation of bands was performed using the LICOR Odyssey system, or LAS-3000 (Fujifilm).

IC50 (H1944 cells [2]) | SMILES | CXCL10 secretion in H1944 cells following 48-hour pulse treatment (STING pathway; H1944 cells, IC50-based screening concentration, ELISA of conditioned medium) | CXCL10 induction at lower concentrations (STING pathway; H1944 cells, concentrations below the IC50, pulse treatment) | micronuclei formation (H1944 cells [1]) | CXCL10 secretion, STING^Absent KL cell lines (KL NSCLC cell lines; A549, H23, A427, up to 100 μM) | CXCL10 secretion, STING^Low KL cells (KL NSCLC cell lines; H1944, H2122, H647, H1355, 3.125-100 μM) | STING signaling activation in H1944 cells (STING pathway; 200 nM CFI-402257 screening schedule vs 10 μM ADU-S100 24 hours) | STING pathway activation in macrophage-like THP1 cells (THP1 cells)
3.97 nM | CC(=O)O[C@@]12CO[C@@H]1C[C@H](O)[C@@]1(C)C(=O)[C@H](O)C3=C(C)[C@@H](OC(=O)[C@H](O)[C@@H](NC(=O)OC(C)(C)C)c4ccccc4)C[C@@](O)([C@@H](OC(=O)c4ccccc4)[C@H]21)C3(C)C [docetaxel] | induce significant CXCL10 secretion; also recorded: partially activated CXCL10 production | not upregulated | generated micronuclei | – | – | – | –
– | Nc1ncnc2c1ncn2[C@@H]1O[C@@H]2COP(=O)([S-])O[C@@H]3[C@H](O)[C@@H](COP([O-])(=S)O[C@H]2[C@H]1O)O[C@H]3n1cnc2c(N)ncnc21.[Na+].[Na+] (some centres unmarked) [ADU-S100] | – | – | – | failed to respond | dose-dependent manner | negligible impact | high sensitivity
